Assay results published in ChEMBL document CHEMBL1909046, “DrugMatrix in vitro pharmacology data”.

Key:
[1] = target: T1, Endothelin-1 receptor (Homo sapiens, UniProt P25101); assay type: cell membranes, Membrane; settings: cho-k1; further: in other assays of this panel Not Active means under 50% inhibition at 10 µM
T1 sequence (P25101 whole entry): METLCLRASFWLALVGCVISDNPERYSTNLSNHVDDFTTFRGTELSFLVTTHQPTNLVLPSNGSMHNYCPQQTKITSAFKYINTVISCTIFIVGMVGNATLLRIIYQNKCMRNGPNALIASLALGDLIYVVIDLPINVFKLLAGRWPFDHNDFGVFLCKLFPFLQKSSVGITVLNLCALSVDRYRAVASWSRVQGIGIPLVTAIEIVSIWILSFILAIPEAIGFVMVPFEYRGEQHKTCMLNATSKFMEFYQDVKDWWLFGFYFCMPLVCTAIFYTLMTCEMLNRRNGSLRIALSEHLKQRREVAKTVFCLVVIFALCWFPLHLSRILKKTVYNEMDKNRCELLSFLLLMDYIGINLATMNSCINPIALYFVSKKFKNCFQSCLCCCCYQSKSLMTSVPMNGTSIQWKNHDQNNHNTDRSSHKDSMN

[2] = target: T2, Substance-K receptor (Homo sapiens, UniProt P21452); assay type: cell membranes, CHO, Membrane; settings: cho; further: in other assays of this panel Not Active means under 50% inhibition at 10 µM
T2 sequence (P21452 whole entry): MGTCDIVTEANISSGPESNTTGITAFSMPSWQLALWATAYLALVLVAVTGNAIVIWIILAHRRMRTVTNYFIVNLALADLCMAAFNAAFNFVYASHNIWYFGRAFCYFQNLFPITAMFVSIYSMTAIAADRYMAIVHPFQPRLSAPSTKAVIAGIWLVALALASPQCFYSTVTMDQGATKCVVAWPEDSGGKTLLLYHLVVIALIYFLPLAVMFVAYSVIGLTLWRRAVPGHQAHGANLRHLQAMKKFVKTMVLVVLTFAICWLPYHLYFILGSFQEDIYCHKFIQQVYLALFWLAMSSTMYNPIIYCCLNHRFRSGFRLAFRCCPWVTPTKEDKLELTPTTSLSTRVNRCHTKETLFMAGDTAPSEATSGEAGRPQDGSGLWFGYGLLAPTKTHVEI

[3] = target: T3, B2 bradykinin receptor (Homo sapiens, UniProt P30411); assay type: cell membranes, Membrane; settings: chem-1; further: in other assays of this panel Not Active means under 50% inhibition at 10 µM
T3 sequence (P30411 whole entry): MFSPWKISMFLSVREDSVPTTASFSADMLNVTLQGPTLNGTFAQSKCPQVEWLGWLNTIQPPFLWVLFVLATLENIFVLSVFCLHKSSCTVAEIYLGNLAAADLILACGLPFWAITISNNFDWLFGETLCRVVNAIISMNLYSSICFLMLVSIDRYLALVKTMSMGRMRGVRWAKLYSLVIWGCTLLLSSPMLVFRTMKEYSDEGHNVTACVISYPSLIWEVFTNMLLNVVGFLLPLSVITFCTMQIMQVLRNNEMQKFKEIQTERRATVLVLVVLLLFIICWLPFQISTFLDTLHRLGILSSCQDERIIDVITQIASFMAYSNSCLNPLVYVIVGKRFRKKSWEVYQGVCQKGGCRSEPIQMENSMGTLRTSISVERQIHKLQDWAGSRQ

[4] = DRUGMATRIX: Leukotriene, BLT (LTB4) radioligand binding (ligand: [3H]LTB4); assay type: cell membranes, Membrane; settings: u-937; Not Active = under 50% inhibition at 10 µM
[5] = target: Melanocortin receptor 5 (Homo sapiens, UniProt P33032); assay type: cell membranes, Membrane; settings: hek293; further: in other assays of this panel Not Active means under 50% inhibition at 10 µM
Melanocortin receptor 5, sequence (P33032 whole entry): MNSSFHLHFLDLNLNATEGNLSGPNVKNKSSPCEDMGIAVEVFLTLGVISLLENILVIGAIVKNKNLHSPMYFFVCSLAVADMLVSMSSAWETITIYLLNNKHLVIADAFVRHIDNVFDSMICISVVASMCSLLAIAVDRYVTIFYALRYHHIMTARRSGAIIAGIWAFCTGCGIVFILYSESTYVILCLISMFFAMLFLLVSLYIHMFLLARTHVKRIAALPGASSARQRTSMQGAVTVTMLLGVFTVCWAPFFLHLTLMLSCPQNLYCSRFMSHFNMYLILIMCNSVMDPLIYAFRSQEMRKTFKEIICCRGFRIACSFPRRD

[6] = target: T4, Cholecystokinin receptor type A (Homo sapiens, UniProt P32238); assay type: cell membranes, Membrane; settings: 1321-n1; further: in other assays of this panel Not Active means under 50% inhibition at 10 µM
T4 sequence (P32238 whole entry): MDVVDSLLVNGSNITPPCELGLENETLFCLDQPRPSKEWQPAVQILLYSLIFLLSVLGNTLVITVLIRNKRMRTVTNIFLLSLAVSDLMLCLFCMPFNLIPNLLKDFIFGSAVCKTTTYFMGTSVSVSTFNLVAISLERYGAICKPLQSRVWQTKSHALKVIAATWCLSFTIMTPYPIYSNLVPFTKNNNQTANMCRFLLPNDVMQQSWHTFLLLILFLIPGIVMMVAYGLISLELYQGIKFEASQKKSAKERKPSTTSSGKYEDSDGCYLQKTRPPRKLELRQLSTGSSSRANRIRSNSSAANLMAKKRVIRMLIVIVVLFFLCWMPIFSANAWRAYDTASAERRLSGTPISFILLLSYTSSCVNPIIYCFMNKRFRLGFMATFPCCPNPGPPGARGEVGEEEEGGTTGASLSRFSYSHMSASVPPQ

[7] = DRUGMATRIX: Glutamate, AMPA radioligand binding (ligand: [3H] AMPA); assay type: cell membranes, Rattus norvegicus, Wistar, Cerebral cortex, Membrane; settings: Not Active = under 50% inhibition at 10 µM
[8] = target: T5, Type-2 angiotensin II receptor (Homo sapiens, UniProt P50052); assay type: cell-based; settings: cho-k1; further: in other assays of this panel Not Active means under 50% inhibition at 10 µM
T5 sequence (P50052 whole entry): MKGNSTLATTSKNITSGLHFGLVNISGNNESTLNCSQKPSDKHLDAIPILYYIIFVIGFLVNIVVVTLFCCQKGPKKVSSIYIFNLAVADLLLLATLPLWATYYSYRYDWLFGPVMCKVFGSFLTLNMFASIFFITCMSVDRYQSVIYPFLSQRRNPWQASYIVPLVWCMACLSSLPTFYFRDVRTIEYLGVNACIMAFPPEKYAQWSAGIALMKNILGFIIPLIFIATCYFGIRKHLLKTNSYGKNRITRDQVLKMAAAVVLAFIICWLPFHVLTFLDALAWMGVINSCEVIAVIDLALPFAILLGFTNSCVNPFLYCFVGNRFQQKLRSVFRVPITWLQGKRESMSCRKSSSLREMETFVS

CC(=O)Nc1ccc(O)cc1 [ACETAMINOPHEN]
Not Active: IC50 [1] | IC50 [2] | IC50 [3] | IC50 [4] | Ki [4] | IC50 [5] | IC50 [6] | IC50 [7] | Ki [7] | IC50 [8]

CCCCN1CCCCC1C(=O)Nc1c(C)cccc1C.Cl (stereo unspecified) [BUPIVACAINE HYDROCHLORIDE]
Not Active: IC50 [1] | IC50 [2] | IC50 [3] | IC50 [4] | Ki [4] | IC50 [5] | IC50 [6] | IC50 [7] | Ki [7] | IC50 [8]

Nc1ccn([C@@H]2CS[C@H](CO)O2)c(=O)n1 [LAMIVUDINE]
Not Active: IC50 [1] | IC50 [2] | IC50 [3] | IC50 [4] | Ki [4] | IC50 [5] | IC50 [6] | IC50 [7] | Ki [7] | IC50 [8]

COP(=O)(OC)OC=C(Cl)Cl [DICHLORVOS]
Not Active: IC50 [1] | IC50 [2] | IC50 [3] | IC50 [4] | Ki [4] | IC50 [5] | IC50 [6] | IC50 [7] | Ki [7] | IC50 [8]

CADMIUM DICHLORIDE
Not Active: IC50 [1] | Ki [1] | IC50 [2] | Ki [2] | IC50 [3] | Ki [3] | IC50 [4] | Ki [4] | IC50 [5] | Ki [5] | IC50 [6] | Ki [6] | IC50 [7] | Ki [7] | IC50 [8] | Ki [8]

C[C@](O)(CS(=O)(=O)c1ccc(F)cc1)C(=O)Nc1ccc(C#N)c(C(F)(F)F)c1 [(R)-BICALUTAMIDE]
Not Active: IC50 [1] | IC50 [2] | IC50 [3] | IC50 [4] | Ki [4] | IC50 [5] | IC50 [6] | IC50 [7] | Ki [7] | IC50 [8]

Cc1nccn1CC1CCc2c(c3ccccc3n2C)C1=O (stereo unspecified) [ONDANSETRON]
Not Active: IC50 [1] | IC50 [2] | IC50 [3] | IC50 [4] | Ki [4] | IC50 [5] | IC50 [6] | IC50 [7] | Ki [7] | IC50 [8]

CCOC(=O)[C@H](CCc1ccccc1)N[C@H]1CCc2ccccc2N(CC(=O)O)C1=O [BENAZEPRIL]
Not Active: IC50 [1] | IC50 [2] | IC50 [3] | IC50 [4] | Ki [4] | IC50 [5] | IC50 [6] | IC50 [7] | Ki [7] | IC50 [8]

CCCCOc1ccc(OCCCN2CCOCC2)cc1 [PRAMOXINE]
Not Active: IC50 [1] | IC50 [2] | IC50 [3] | IC50 [4] | Ki [4] | IC50 [5] | IC50 [6] | IC50 [7] | Ki [7] | IC50 [8]

COc1cccc2c1C(=O)c1c(O)c3c(c(O)c1C2=O)C[C@@](O)(C(=O)CO)C[C@@H]3O[C@H]1C[C@H](N)[C@H](O)[C@H](C)O1 [DOXORUBICIN]
Not Active: IC50 [1] | IC50 [2] | IC50 [3] | IC50 [4] | Ki [4] | IC50 [5] | IC50 [6] | IC50 [7] | Ki [7] | IC50 [8]
